Measurements: patent publication US11026942B2, “Agent for preventing and/or treating Alzheimer's disease” (KYOTO UNIVERSITY, priority 2015, dated 2021)

What was measured:
Type in all cases: cell-based, human
sAPPα = sAPPα in FAD1 iPS cell-derived nerve cells (secondary screening); design: scale not given here; conditions: secondary screening, FAD1 iPS cell-derived nerve cells
Experimental: (§1) To further study reproducibility of the candidate drugs obtained by the primary screening, secondary screening was conducted. In addition to Aβ40, Aβ42, Aβ42/40 ratio, Aβ38, Aβ43, sAPPα, sAPPβ were also studied and each numerical value was obtained.

Aβ38 = Aβ38 in FAD1 iPS cell-derived nerve cells (secondary screening); design: scale not given here
Experimental: as §1

Aβ42/40 ratio = Aβ42/40 ratio in FAD1 iPS cell-derived nerve cells (primary/secondary screening, dose dependency); conditions: secondary screening
Source text: (§2) To perform induction from iPS cells to the cerebral cortex nerve early and with high reproducibility, iPS cells introduced with human Neurogenin 2 gene (NGN2) linked to doxycycline-inducible promoter by using PiggyBac were used (FIG. 1a, FIG. 1b, FIG. 4a and FIG. 4b). IPS cells prepared from 4 patients with familial Alzheimer's disease (FAD), 2 patients with sporadic Alzheimer's disease (SAD) and 4 healthy individuals (HC) were used. The iPS cells were established by the method described in Okita K et al., Nature.
(§3) Structural formulas (those in the form of salt or halide are also described as free form) and the general names of the candidate compounds are shown in Table 1.
as §1

sAPPβ = sAPPβ in FAD1 iPS cell-derived nerve cells (secondary screening); design: sAPPβ: scale not given here; conditions: secondary screening, FAD1 iPS cell-derived nerve cells
Experimental: as §1

Aβ43 = Aβ43 in FAD1 iPS cell-derived nerve cells (secondary screening); design: scale not given here
Experimental: as §1

Aβ42 = Aβ42 in FAD1 iPS cell-derived nerve cells (primary/secondary screening, dose dependency); conditions: secondary screening, FAD1 iPS cell-derived nerve cells, numerical value (Aβ change rate)
Source text: as §2, §3, §1

SMILES | sAPPα (sAPPα) | Aβ38 (Aβ38) | Ratio Aβ42/40 (Aβ42/40 ratio) | sAPPβ (sAPPβ) | Aβ43 (Aβ43) | Aβ42 (Aβ42)
CN1CCCN=C1COC(=O)C(O)(c1ccccc1)C1CCCCC1 (stereo not drawn) [compound 1, OXYPHENCYCLIMINE] | 0.91 | 1.08 | 1.03 | 1 | 0.98 | 0.99
Cc1cccc(C)c1NC(=O)C1CCCCN1C (stereo not drawn) [compound 2, MEPIVACAINE] | 0.77 | 1.01 | 0.93 | 0.88 | 0.83 | 0.9
COc1ccccc1OCC(O)CN1CCN(CC(=O)Nc2c(C)cccc2C)CC1 (stereo not drawn) [compound 3, RANOLAZINE] | 0.64 | 1 | 0.89 | 0.61 | 0.82 | 0.85
CNCC[C@@H](Oc1ccccc1C)c1ccccc1 [compound 4, ATOMOXETINE] | 0.78 | 1.1 | 0.94 | 0.81 | 0.89 | 0.95
CN(C/C=C/C#CC(C)(C)C)Cc1cccc2ccccc12 [compound 5, TERBINAFINE] | 0.98 | 1.06 | 0.96 | 1.06 | 0.94 | 0.94
CN(C)C(=O)C(CCN1CCC(O)(c2ccc(Cl)cc2)CC1)(c1ccccc1)c1ccccc1 [compound 6, LOPERAMIDE] | 0.89 | 1.03 | 0.93 | 0.78 | 0.88 | 0.88
CCN(CCCc1ccccc1)CCCc1ccccc1 [compound 7, ALVERINE] | 0.78 | 0.94 | 0.93 | 0.63 | 0.79 | 0.86
CN1CCc2cccc3c2[C@H]1Cc1ccc(O)c(O)c1-3 [compound 8, APOMORPHINE] | 0.8 | 1.08 | 1.01 | 0.78 | 1.01 | 0.93
CCN(CC)CCOc1ccc(/C(=C(\Cl)c2ccccc2)c2ccccc2)cc1 [compound 9, CLOMIPHENE] | 0.71 | 1.04 | 0.89 | 0.66 | 0.86 | 0.83
CN1C(=O)CC[C@H]1c1cccnc1 [compound 10, COTININE] | 0.81 | 1.08 | 0.94 | 0.81 | 0.87 | 0.87
O=C(O)c1cc(=O)c2c(OCC(O)COc3cccc4oc(C(=O)O)cc(=O)c34)cccc2o1 [compound 11, CROMOLYN] | 0.89 | 1.04 | 0.96 | 0.86 | 0.82 | 0.88
CN1CCN(C(c2ccccc2)c2ccccc2)CC1 [compound 12, CYCLIZINE] | 1.03 | 1.23 | 0.95 | 1.3 | 1.06 | 1.04
CNCCCN1c2ccccc2CCc2ccccc21 [compound 13, DESIPRAMINE] | 0.83 | – | – | 1.01 | 0.9 | 0.94
CN(C)CCOC(c1ccccc1)c1ccccc1 [compound 14, diphenhydramine] | 0.97 | 1.06 | – | 1.02 | 0.97 | 0.98
CCN(CC)C(C)CN1c2ccccc2Sc2ccccc21 (stereo not drawn) [compound 15, ETHOPROPAZINE] | 0.72 | 1.03 | 0.88 | 0.71 | 0.84 | 0.84
CN1[C@@H]2CC[C@@H]1CC(OC(=O)C(O)c1ccccc1)C2 (stereo partly drawn) [compound 16, HOMATROPINE] | 1.15 | 1.22 | – | 1.24 | 1.09 | 1.04
CN(C)CCCN1c2ccccc2CCc2ccccc21 [compound 17, IMIPRAMINE] | – | 1.12 | – | 1.2 | 1.27 | –
Nc1c2c(nc3ccccc13)CCCC2 [compound 18, TACRINE] | 1.04 | 1.18 | 1.02 | 1.23 | 1.21 | 1
CC(C)[N+](C)(CCC(C(N)=O)(c1ccccc1)c1ccccc1)C(C)C [compound 19, ISOPROPAMIDE] | 0.84 | 1.09 | 1.24 | 0.74 | 0.95 | 0.88
c1ccc2[nH]c(-c3cscn3)nc2c1 [compound 20, THIABENDAZOLE] | 0.79 | 1.05 | 0.88 | 0.67 | 0.79 | 0.84
CNCCc1ccccn1 [compound 21, BETAHISTINE] | 0.73 | 1.01 | 1.08 | 0.91 | 0.87 | 0.98
OC1CCCCC1N1CCC(c2ccccc2)CC1 (stereo not drawn) [compound 22, VESAMICOL] | 0.89 | 1 | 0.97 | 0.74 | 0.87 | 0.9
Oc1ccc(OCc2ccccc2)cc1 [compound 23, MONOBENZONE] | 0.74 | 1.05 | 0.91 | 0.56 | 0.89 | 0.82
CN1CCN(C2=Nc3ccccc3Oc3ccc(Cl)cc32)CC1 [compound 25, LOXAPINE] | 1.15 | 1.11 | 0.98 | 1.11 | 1.14 | 0.94
CCc1cccc2c3c([nH]c12)C(CC)(CC(=O)O)OCC3 (stereo not drawn) [compound 26, ETODOLAC] | 0.99 | 1.11 | 1.13 | 0.98 | 1.55 | 0.99
c1ccc(-c2ccc(C(c3ccccc3)n3ccnc3)cc2)cc1 (stereo not drawn) [compound 27, BIFONAZOLE] | 1.04 | 1.06 | 0.84 | 1.19 | 0.99 | 0.84
O=C(O)COCCN1CCN([C@H](c2ccccc2)c2ccc(Cl)cc2)CC1 [compound 30, LEVOCETIRIZINE] | 0.93 | 0.98 | – | 0.93 | 0.85 | 0.76
CCN(CC)CCOC(=O)C1(C2CCCCC2)CCCCC1 [compound 104, DICYCLOMINE] | 0.81 | 1.08 | – | 0.84 | 0.82 | 0.93
